Patent US8436011B2, “Pyridinopyridinone derivatives, preparation thereof and therapeutic use thereof” (Sanofi, priority 2008, dated 2013)
Several values for one entry are separate records, joined by “and”; a condition that tells them apart may be missing. Equal values may be shown once. Where a name gives a salt, the structure may show the parent alone.

SMILES	melting point
CCn1c(N)c(C(=O)NC)c(=O)c2ccc(-c3ccc(CC(=O)Nc4ccccc4)cc3)nc21	299 °C
CCn1c(N)c(C(=O)NC)c(=O)c2ccc(-c3ccc(CC(=O)NC4CCCC4)cc3)nc21	300 °C
CCN1CCCC1CN(C)C(=O)Cc1ccc(-c2ccc3c(=O)c(C(=O)NC)c(N)n(CC)c3n2)cc1 (stereo not shown)	138 °C
CCn1c(N)c(C(=O)NC)c(=O)c2ccc(-c3ccc(CC(=O)NCCc4ccccc4)cc3)nc21	270 °C
CCN1CCCC1CNC(=O)Cc1ccc(-c2ccc3c(=O)c(C(=O)NC)c(N)n(CC4CC4)c3n2)cc1 (stereo not shown)	260 °C
CCn1c(N)c(C(=O)NC)c(=O)c2ccc(-c3ccc(CC(=O)Nc4ccncc4)cc3)nc21 (as salt: HCl)	250 °C
CCn1c(N)c(C(=O)NC)c(=O)c2ccc(-c3ccc(CC(=O)NCCc4ccccn4)cc3)nc21 (as salt: HCl)	248 °C
CNC(=O)c1c(N)n(CCCOC)c2nc(-c3ccc(CC(=O)Nc4ccccn4)cc3)ccc2c1=O (as salt: HCl)	230 °C
CCn1c(N)c(C(=O)NC)c(=O)c2ccc(-c3ccc(CC(=O)Nc4cccnc4)cc3)nc21 (as salt: HCl) [compound 3, 2-amino-1-ethyl-N-methyl-4-oxo-7-{4-[2-oxo-2-(pyrid-3-ylamino)ethyl]-phenyl}-1,4-dihydro-1,8-naphthyridine-3-carboxamide]	270 °C
CCn1c(N)c(C(=O)NC)c(=O)c2ccc(-c3ccc(CC(=O)Nc4ccccn4)cc3)nc21 (as salt: HCl) [compound 4, 2-amino-1-ethyl-N-methyl-4-oxo-7-{4-[2-oxo-2-(pyrid-2-ylamino)ethyl]-phenyl}-1,4-dihydro-1,8-naphthyridine-3-carboxamide]	258 °C
CCn1c(N)c(C(=O)NC)c(=O)c2ccc(-c3ccc(CC(=O)NCc4ccncc4)cc3)nc21 (as salt: HCl) [compound 7, 2-amino-1-ethyl-N-methyl-4-oxo-7-(4-{2-oxo-2-[(pyrid-4-ylmethyl)amino]-ethyl}phenyl)-1,4-dihydro-1,8-naphthyridine-3-carboxamide]	230 °C
CCn1c(N)c(C(=O)NC)c(=O)c2ccc(-c3ccc(CC(=O)NCc4ccccn4)cc3)nc21 (as salt: HCl) [compound 8, 2-amino-1-ethyl-N-methyl-4-oxo-7-(4-{2-oxo-2-[(pyrid-2-ylmethyl)amino]-ethyl}phenyl)-1,4-dihydro-1,8-naphthyridine-3-carboxamide]	268 °C
CCn1c(N)c(C(=O)NC)c(=O)c2ccc(-c3ccc(CC(=O)NCCN4CCOCC4)cc3)nc21 (as salt: HCl) [compound 18, 2-amino-1-ethyl-N-methyl-7-(4-{2-[(2-morpholin-4-ylethyl)amino]-2-oxoethyl}phenyl)-4-oxo-1,4-dihydro-1,8-naphthyridine-3-carboxamide]	220 to 222 °C
CCn1c(N)c(C(=O)NC)c(=O)c2ccc(-c3ccc(CC(=O)Nc4ccccn4)cn3)nc21 (as salt: HCl) [compound 19, 2-amino-1-ethyl-N-methyl-4-oxo-7-{5-[2-oxo-2-(pyrid-2-ylamino)-ethyl]pyrid-2-yl}-1,4-dihydro-1,8-naphthyridine-3-carboxamide]	268 to 288 °C
CCn1c(N)c(C(=O)NC)c(=O)c2ccc(-c3ccc(C(C)C(=O)Nc4ccccn4)cc3)nc21 (stereo not shown) (as salt: HCl) [compound 20, 2-amino-1-ethyl-N-methyl-7-{4-[1-methyl-2-oxo-2-(pyrid-2-ylamino)ethyl]-phenyl}-4-oxo-1,4-dihydro-1,8-naphthyridine-3-carboxamide]	188 °C
CCN1CCOCC1CNC(=O)Cc1ccc(-c2ccc3c(=O)c(C(=O)NC)c(N)n(CC)c3n2)cc1 (stereo not shown) (as salt: HCl) [compound 22, 2-amino-1-ethyl-7-[4-(2-{[(4-ethylmorpholin-3-yl)methyl]amino}-2-oxoethyl)phenyl]-N-methyl-4-oxo-1,4-dihydro-1,8-naphthyridine-3-carboxamide]	188 to 190 °C and 190 °C

SMILES	melting point
CCN1CCOCC1CNC(=O)Cc1ccc(-c2ccc3c(=O)c(C(=O)NC)c(N)n(CC)c3n2)cn1 (stereo not shown) (as salt: HCl) [compound 23, 2-amino-1-ethyl-7-[6-(2-{[(4-ethylmorpholin-3-yl)methyl]amino}-2-oxoethyl)pyrid-3-yl]-N-methyl-4-oxo-1,4-dihydro-1,8-naphthyridine-3-carboxamide]	199 °C
CCN1CC(F)(F)C[C@H]1CNC(=O)Cc1ccc(-c2ccc3c(=O)c(C(=O)NC)c(N)n(CC)c3n2)cc1 (as salt: HCl) [compound 24, 2-amino-1-ethyl-7-{4-[2-({[(2S)-1-ethyl-4,4-difluoropyrrolidin-2-yl]methyl}-amino)-2-oxoethyl]phenyl}-N-methyl-4-oxo-1,4-dihydro-1,8-naphthyridine-3-carboxamide]	266 °C
CCN1CCOCC1CNC(=O)C(C)c1ccc(-c2ccc3c(=O)c(C(=O)NC)c(N)n(CC)c3n2)cc1 (stereo not shown) (as salt: HCl) [compound 25, 2-amino-1-ethyl-7-[4-(2-{[(4-ethylmorpholin-3-yl)methyl]amino}-1-methyl-2-oxoethyl)phenyl]-N-methyl-4-oxo-1,4-dihydro-1,8-naphthyridine-3-carboxamide]	190 °C
CCN1C[C@H](F)C[C@H]1CNC(=O)Cc1ccc(-c2ccc3c(=O)c(C(=O)NC)c(N)n(CC)c3n2)cc1 (as salt: HCl) [compound 26, 2-amino-1-ethyl-7-{4-[2-({[(2S,4R)-1-ethyl-4-fluoropyrrolidin-2-yl]methyl}-amino)-2-oxoethyl]phenyl}-N-methyl-4-oxo-1,4-dihydro-1,8-naphthyridine-3-carboxamide]	170 °C
CCn1c(N)c(C(=O)NC)c(=O)c2ccc(-c3ccc(CC(=O)NC[C@H]4CCCN4CCF)cn3)nc21 (as salt: HCl) [compound 29, 2-amino-1-ethyl-7-{5-[2-({[(2R)-1-(2-fluoroethyl)pyrrolidin-2-yl]methyl}-amino)-2-oxoethyl]pyrid-2-yl}-N-methyl-4-oxo-1,4-dihydro-1,8-naphthyridine-3-carboxamide]	194 °C
CCn1c(N)c(C(=O)NC)c(=O)c2ccc(-c3ccc(CC(=O)NC[C@H]4CCCN4CC(F)F)cc3)nc21 (as salt: HCl) [compound 31, 2-amino-7-{4-[2-({[(2R)-1-(2,2-difluoroethyl)pyrrolidin-2-yl]methyl}amino)-2-oxoethyl]phenyl}-1-ethyl-N-methyl-4-oxo-1,4-dihydro-1,8-naphthyridine-3-carboxamide]	214 to 228 °C
CCn1c(N)c(C(=O)NC)c(=O)c2ccc(-c3ccc(CC(=O)NCC4COCCN4C(C)C)cc3)nc21 (stereo not shown) (as salt: HCl) [compound 32, 2-amino-1-ethyl-N-methyl-7-{4-[2-({[4-(1-methylethyl)morpholin-3-yl]-methyl}amino)-2-oxoethyl]phenyl}-4-oxo-1,4-dihydro-1,8-naphthyridine-3-carboxamide]	192 °C
CCn1c(N)c(C(=O)NC)c(=O)c2ccc(-c3ccc(CC(=O)NCC4COCCN4C4CC4)cc3)nc21 (stereo not shown) (as salt: HCl) [compound 33, 2-amino-7-[4-(2-{[(4-cyclopropylmorpholin-3-yl)methyl]amino}-2-oxoethyl)phenyl]-1-ethyl-N-methyl-4-oxo-1,4-dihydro-1,8-naphthyridine-3-carboxamide]	250 °C
CCn1c(N)c(C(=O)NC)c(=O)c2ccc(-c3ccc(CC(=O)NC[C@H]4CCCN4CC(F)F)cn3)nc21 (as salt: HCl) [compound 34, 2-amino-7-{5-[2-({[(2R)-1-(2,2-difluoroethyl)pyrrolidin-2-yl]methyl}amino)-2-oxoethyl]pyrid-2-yl}-1-ethyl-N-methyl-4-oxo-1,4-dihydro-1,8-naphthyridine-3-carboxamide]	260 °C
CCn1c(N)c(C(=O)NC)c(=O)c2ccc(-c3ccc(CC(=O)NCc4cncn4C)cc3)nc21 (as salt: HCl) [compound 36, 2-amino-1-ethyl-N-methyl-7-[4-(2-{[(1-methyl-1H-imidazol-5-yl)methyl]amino}-2-oxoethyl)phenyl]-4-oxo-1,4-dihydro-1,8-naphthyridine-3-carboxamide]	270 °C
CCn1c(N)c(C(=O)NC)c(=O)c2ccc(-c3ccc(CC(=O)NCCc4cccnc4)cc3)nc21 (as salt: HCl) [compound 37, 2-amino-1-ethyl-N-methyl-4-oxo-7-(4-{2-oxo-2-[(2-pyrid-3-ylethyl)amino]-ethyl}phenyl)-1,4-dihydro-1,8-naphthyridine-3-carboxamide]	222 °C
CCn1c(N)c(C(=O)NC)c(=O)c2ccc(-c3ccc(CC(=O)NCCCN4CCOCC4)cc3)nc21 (as salt: HCl) [compound 38, 2-amino-1-ethyl-N-methyl-7-(4-{2-[(3-morpholin-4-ylpropyl)amino]-2-oxoethyl}phenyl)-4-oxo-1,4-dihydro-1,8-naphthyridine-3-carboxamide]	196 °C
CCN1CCCC1CNC(=O)Cc1csc(-c2ccc3c(=O)c(C(=O)NC)c(N)n(CC)c3n2)n1 (stereo not shown) (as salt: HCl) [compound 43, 2-amino-1-ethyl-7-[4-(2-{[(1-ethylpyrrolidin-2-yl)methyl]amino}-2-oxoethyl)-1,3-thiazol-2-yl]-N-methyl-4-oxo-1,4-dihydro-1,8-naphthyridine-3-carboxamide]	228 °C
CCN1CCCC1CNC(=O)Cc1ccc(-c2ccc3c(=O)c(C(=O)NC)c(N)n(CC)c3n2)cc1Cl (stereo not shown) (as salt: HCl) [compound 57, 2-amino-7-[3-chloro-4-(2-{[(1-ethylpyrrolidin-2-yl)methyl]amino}-2-oxoethyl)phenyl]-1-ethyl-N-methyl-4-oxo-1,4-dihydro-1,8-naphthyridine-3-carboxamide]	228 °C
CCN1CCCC1CNC(=O)Cc1cccc(-c2ccc3c(=O)c(C(=O)NC)c(N)n(CC)c3n2)c1 (stereo not shown) (as salt: HCl) [compound 62, 2-amino-1-ethyl-7-[3-(2-{[(1-ethylpyrrolidin-2-yl)methyl]amino}-2-oxoethyl)phenyl]-N-methyl-4-oxo-1,4-dihydro-1,8-naphthyridine-3-carboxamide]	213 °C
